Where a name gives a salt, the structure may show the parent alone.
What was measured:
male Wistar rats = experiment: Effect on sleep/wake (EEG telemetry) in rats; type: in vivo, rat; conditions: oral gavage, over 12 hours
Procedure: Effects on sleep/wake parameters were investigated in male Wistar rats. Briefly, rats were stereotaxically implanted with cortical electrodes for electroencephalogram (EEG) recording using a telemetric system (Data Sciences Int., Saint Paul, MN, USA) for the acquisition, transfer and storage of motor activity and EEG signals. EEG signals were analysed according to a procedure adapted from the algorithm proposed by R. P. Louis et al. (J. Neurosci. Methods, 2004, 133, 71-80) and the analysis of vigilance stages according to H. Kleinlogel (Neuropsychobiol. 1990-91, 23, 197-204) after a fast Fourier transformation of 8-second duration EEG epochs. This allows the determination for each epoch of its vigilance stage (i.e. active wakefulness, quiet wakefulness, light or deep slow wave sleeps and REM sleep also named paradoxical sleep). Rats received orally (gavage) vehicle, drug or drug combination around 30 minutes before the light onset. Then, EEG signals were continuously recorded and further integrated over the 12-hour diurnal phase.
Effects on sleep/wake recorded in rats of drugs alone or combined are presented in the FIG. 1 (Pitolisant/duloxetine), FIG. 2 (BP1.3656B/duloxetine), FIG. 3 (pitolisant/reboxetine) and FIG. 4 (pitolisant/atomoxetine): […]

[1] = test system: noradrenaline release in the prefrontal cortex; experiment: Noradrenaline release in the prefrontal cortex, in vivo microdialysis; conditions: rat prefrontal cortex, oral gavage, maximal increase recorded over 150 min post dosing, mean ± SEM
From the text: Effects on noradrenaline release in the prefrontal cortex were investigated in vivo by microdialysis in vigil male Wistar rats as described by AD Medhurst et al. (J. Pharmacol. Exp. Ther. 2007, 321, 1032-1045) and G. Flik et al. (J. Mol. Neurosci. 2015, 56, 320-328). Briefly, anaesthetized rats were implanted with a guide cannulae for sampling in the prefrontal cortex. After at least one week of recovery post-surgery, the microdialysis probe was inserted in the guide cannulae and perfused continuously with artificial cerebrospinal fluid (CSF). The rat was habituated to the microdialysis cage for ˜3 hours. Then, rats received orally (gavage) vehicle, drug or drug combination. CSF samples collected every 30 minutes were analysed for their noradrenaline content by HPLC coupled to a electrochemical detection. Noradrenaline sample levels were expressed in percentage of basal noradrenaline release recorded over 1.5 hour before vehicle or drug treatment.

| Compound | decrease in the REM sleep (male Wistar rats) | Maximal increase (% of basal noradrenaline release) [1] |
| --- | --- | --- |
| CNCC[C@H](Oc1cccc2ccccc12)c1cccs1 [duloxetine] | −23% | +113 ± 31% |
| Clc1ccc(CCCOCCCN2CCCCC2)cc1 [pitolisant, monohydrochloride salt of 1-{3-[3-(4-chlorophenyl)propoxy]propyl}piperidine] | does not have any significant effect | +148 ± 49% |
